In ChEMBL document CHEMBL1128803 (Bioorg Med Chem Lett, 1995):

How the values were obtained:
Type in all cases: protein assay
[1] = biological target: Phosphodiesterase 4 (Mus musculus, UniProt Q8VBU5+Q3UEI1+O89084+Q01063); test: Inhibition of [3H]rolipram binding to Phosphodiesterase 4 (PDE IV)
[2] = biological target: Phosphodiesterase 4 (Homo sapiens, UniProt P27815+Q08499+Q07343+Q08493); test: Inhibition of Phosphodiesterase 4
[3] = biological target: Phosphodiesterase 3 (Homo sapiens) (UniProt Q14432+Q13370); test: Inhibition of Phosphodiesterase 3 (PDE III) at 100 uM

## COc1ccc(/C=C2\C(=O)Nc3ccccc32)cc1OC1CC2CCC1C2 (stereo unspecified)
[1]
  IC50: 3.2 µM
[2]
  IC50: 3.7 µM

## COc1ccc(/C=C2\C(=O)N(C)c3ccc(Br)cc32)cc1OC1CC2CCC1C2 (stereo unspecified)
[3]
  inhibition: -7%
[1]
  IC50: 57 µM
[2]
  IC50: 3.6 µM

## COc1ccc(/C=C2/C(=O)Nc3ccccc32)cc1OC1CC2CCC1C2 (stereo unspecified)
[3]
  inhibition: 42%
[1]
  IC50: 4.6 µM
[2]
  IC50: 0.48 µM

## COc1ccc(C2CNC(=O)C2)cc1OC1CCCC1 (stereo unspecified)
[3]
  inhibition: 23%

## COc1ccc(/C=C2\C(=O)Nc3ccc(Br)cc32)cc1OC1CC2CCC1C2 (stereo unspecified)
[3]
  inhibition: 17%
[1]
  IC50: 50 µM
[2]
  IC50: 1.7 µM

## COc1ccc(/C=C2\C(=O)N(C)c3ccc(Cl)cc32)cc1OC1CC2CCC1C2 (stereo unspecified)
[3]
  inhibition: -9%
[1]
  IC50: 58 µM
[2]
  IC50: 3.4 µM

## COc1ccc(/C=C2\C(=O)Nc3ccc([N+](=O)[O-])cc32)cc1OC1CC2CCC1C2 (stereo unspecified)
[3]
  inhibition: 18%
[1]
  IC50: 62 µM
[2]
  IC50: 1.2 µM

## COc1ccc(/C=C2/C(=O)N(C)c3ccc([N+](=O)[O-])cc32)cc1OC1CC2CCC1C2 (stereo unspecified)
[3]
  inhibition: 25%
[1]
  IC50: 66 µM
[2]
  IC50: 7.1 µM
